Test results taken from US6780861B2, “Azabicyclic carbamates and their use as α-7 nicotinic acetylcholine receptor agonists” (Novartis AG, priority 2000, dated 2004).
Counter-ions that a name gives are not always drawn.

| melting point [°C] | SMILES |
| --- | --- |
| 186 to 187 | O=C(NC1CN2CCC1CC2)OCc1ccc2c(c1)OCO2 (centres unmarked) (as salt: hydrochloride) |
| 211 to 212 | COc1cc(COC(=O)NC2CN3CCC2CC3)cc(OC)c1OC (centres unmarked) (as salt: hydrochloride) |
